Test results from PMC8691750, “Euphorbia Factor L2 ameliorates the Progression of K/BxN Serum-Induced Arthritis by Blocking TLR7 Mediated IRAK4/IKKβ/IRF5 and NF-kB Signaling Pathways” (Frontiers in Pharmacology, 2021).

Legend:
[1] = system: K/BxN serum-transfer arthritis (STA) model; assay: K/BxN serum-transfer arthritis (STA) model, arthritic index / clinical score; type: in vivo, C57BL/6 mice; settings: STA mice; DEX 30 mg/kg gavage daily
Experimental: (§1) K/BxN serum was collected from K/BxN mice at 8 weeks of age, pooled, aliquoted and stored at -20 °C. K/BxN serum-transfer arthritis (STA) model was induced by intraperitoneal (i.p.) application of 150 μL of serum at day 0. Clinical score for arthritis severity was assessed using a 0–4 point scale for each paw at various time points (0–16 total score) as described previously ([Luo et al., 2011]). 8-week old male C57BL/6 mice were purchased from Dashuo Animal Center (China, Chengdu), maintained at 25°C, and exposed to 12-h light and dark cycles. Mice were fed with standard laboratory chow and water with 1 week of acclimatization. Naive mice were used as the control group. Except the control mice, all mice were i. p. injected with 150 μL of serum, then randomly divided into the following groups and treated with different compounds daily for the consecutive 8 days: 1) STA group; 2) Solvent control group, mice were gavaged with the solvent; 3) Dexamethasone (DEX) group, mice were gavaged with 30 mg/kg DEX; 4) EFL2 group 1, mice were gavaged with 40 mg/kg EFL2; 5) EFL2 group 2, mice were intraperitoneally injected with 15 mg/kg EFL2; 6) EFL2 group 3, […] were intraperitoneally injected with 40 mg/kg EFL2. […] All animal experiments were conducted in accordance with ethical regulation for animal care and use in China.

[2] = system: synovial hyperplasia and articular inflammatory cells infiltration in knee joints; assay: Histological assessment (H&E) of knee joints of STA mice; type: in vivo, C57BL/6 mice; settings: DEX 30 mg/kg gavage
Experimental: as §1
The left knee joints were removed on day 13 post STA and fixed in 4% formaldehyde overnight at 4°C. The tissues were decalcified in EDTA and sectioned after embedding in paraffin. 5 μm sections were deparaffinized with xylene, re-hydrated with 100, 95 and 80% ethanol and then stained with hematoxylin and eosin (H&E). Histopathological changes in the knee joints were measured using a semiquantitative scoring system (0–4 scale) to assess synovial hyperplasia and articular inflammatory cells infiltration as previously described ([Yamanishi et al., 2002]).

[3] = system: TNF-α, IL-4, IL-17A, IL-1β and IL-6 in serum; assay: Cytokines in sera of STA mice (CBA Multiplex kit, ELISA); type: in vivo, C57BL/6 mice; settings: STA mice; DEX 30 mg/kg gavage
Experimental: as §1
(§2) IL-4, IL-17A and TNF-α in sera from different group mice were measured using CBA Multiplex kit (BD, United States). The concentrations of IL-1β and IL-6 in serum or supernatant were detected by ELISA Kit (MULTI SCIENCES, China) according to the manufacturers’ instructions.

[4] = system: TLR7 (R837) / TLR3 (poly:IC) induced cytokine production in RAW264.7 cells; assay: ELISA of IL-1β and IL-6 in supernatant of R837 and/or poly:IC stimulated RAW264.7 cells; type: cell-based, mouse
Experimental: (§3) RAW264.7 cells (5×10^5/ml), BMDMs (5×10^5/ml) and PBMCs (2×10^6/ml) were plated in 96-well plates and incubated overnight. […] For the anti-inflammatory molecular mechanism study, RAW264.7 cells (5×10^5/ml) were plated in 96-well plates and stimulated with R837 (20 μg/ml) with or without the addition of NF-κB inhibitor (JSH-23, […]) for 24 h. After 24 h, the culture supernatant was collected for cytokines measurements.
as §2

[5] = system: TLR7 (R837) induced cytokine production in PBMCs; assay: ELISA of IL-1β and IL-6 in supernatant of R837 stimulated PBMCs; type: cell-based, human; settings: PBMCs; R837 alone
Experimental: (§4) RAW264.7 cells, a mouse macrophage cell line, were cultured in DMEM medium containing 10% fetal bovine serum (FBS), 1% penicillin-streptomycin and maintained at 37 °C in 5% CO2 humidified air. Bone marrow-derived macrophages (BMDMs) generation was performed as following description. In brief, bone marrow cells were harvested from tibias and femurs of C57BL/6 mice and differentiated for 7 days in DMEM medium supplemented with 10% FBS, 1% penicillin-streptomycin and 50 ng/ml M-CSF. For human peripheral blood mononuclear cells (PBMCs) preparation, 5 ml peripheral venous blood was obtained from healthy donors in West China Hospital. PBMCs were isolated with Human Lymphocyte Separation Medium (LTS1077, Tian Jing, China) according to the manufacturer’s instructions. The experimental protocols were performed according to the approved guidelines established by the Institutional Human Research Subject Protection Committee of the Ethics Committee of West China Hospital, Sichuan University, China.
RAW264.7 cells (5×10^5/ml), BMDMs (5×10^5/ml) and PBMCs (2×10^6/ml) were plated in 96-well plates and incubated overnight. […]
as §2

[6] = system: TLR7-mediated IRAK4/IKKβ/IRF5 signaling pathway; assay: Western blot, IRAK4/IKKβ/IRF5 in R837-stimulated RAW264.7 cells; type: cell-based, mouse; settings: RAW264.7 cells; R837 alone
Experimental: (§5) RAW264.7 cells (2×10^6 cells/well) were plated into 6-well plates and then incubated at 37°C in 5% CO2 for 24 h. After incubated with various concentrations of EFL2 (1, 5 and 10 µM) for 1 h, cells were then stimulated by R837 (20 μg/ml) for 30 min. Cell lysates were prepared by direct lysis in 20 µL IP buffer (Beyotime Biotechnology, Shanghai, China). After obtaining the whole cell extracts, the cytosolic and nuclear were seperated using Nuclear and Cytoplasmic Protein Extraction Kit (Beyotime Biotechnology, Shanghai, China). BCA Protein Assay Kit (Beyotime Biotechnology, Nantong, China) was applied to determine the protein concentrations. The bands corresponding to p- IKKα/β, IKKα/β, p-IκBα, IκBα, p-p65, p65, p-IRAK4, IRAK4, p-IKKβ, IKKβ, p-IRF5, IRF5, β-actin and Lamin B were visualized using a Western Blot Detection Chemiluminescence Kit (Merck). Protein extracted from the total lysates/cytoplasm and nucleus was quantified in relation to β-actin and Lamin B bands, respectively.
(§6) The antibodies used in the experiments were as follows: rabbit anti-mouse IKKα/β polyclonal antibody (1:1,000, Abways, China), rabbit anti-mouse IκBα polyclonal antibody (1:1,000, Abgent, China), rabbit anti-mouse p65 polyclonal antibody (1:1,000, Abgent, China), rabbit anti-mouse phosphorylated IKKα (Ser176)/β (Ser177) (1:1,000, Abways, China), rabbit anti-mouse phosphorylated IκBα (1:1,000, Abcam, United States), rabbit anti-mouse phosphorylated p65 (1:1,000, Abcam, United States), rabbit anti-mouse IRAK4 polyclonal antibody (1:1,000, Proteintech, United States), rabbit anti-mouse phosphorylated IRAK4 (Thr345/Ser346) (1:1,000, Affinity, United States), rabbit anti-mouse IKKβ polyclonal antibody (1:1,000, Abbkine, United States), rabbit anti-mouse phosphorylated IKKβ (Ser177) (1:1,000, Abways, China), rabbit anti-mouse IRF5 polyclonal antibody (1:1,000, Immunoway, United States), rabbit anti-mouse phosphorylated IRF5 (Ser437) (1:1,000, Affinity, United States), anti-mouse actin monoclonal antibody (1:20,000, Transgen, China) and rabbit anti-mouse LaminB monoclonal antibody (1:5,000, Abways, China).

[7] = system: P65 and IRF5 translocation; assay: Confocal microscopy of p65 and IRF5 translocation in RAW264.7 cells; type: cell-based, mouse; settings: R837 alone, immunofluorescence staining
Experimental: P65 and IRF5 translocation activity was analyzed by confocal microscopy. Briefly, 1×10^5 RAW264.7 cells were plated on coverslips overnight. Cells were pretreated with various concentrations of EFL2 (1, 5 and 10 µM) for 1 h and then stimulated by R837 (20 μg/ml) for 30 min. After washed with ice-cold PBS, RAW264.7 cells were fixed with 4% paraformaldehyde for 20 min at room temperature. The coverslips were washed with PBS with 0.2% tween 20 and blocked with 5% goat serum. Primary antibodies were applied to coverslips overnight at 4°C, followed by secondary antibodies incubation for 1 h at room temperature. After three times wash, coverslips were mounted with Fluoroshield™ with DAPI (Solarbio, China) and images were acquired by confocal microscopy (ZEISS, Germany). Primary antibody: rabbit anti-mouse IRF5 (1:800, Abcam, China); rabbit anti-mouse p65 (1:1,000, Abcam, China). Secondary antibody: Alexa eFluor®488 conjugated goat anti-rabbit IgG (1:2000, Thermo Fisher Scientific, Carlsbad, United States).

[8] = system: TLR7 (R837) / TLR3 (poly:IC) induced cytokine production in BMDMs; assay: ELISA of IL-1β and IL-6 in supernatant of R837 and/or poly:IC stimulated BMDMs; type: cell-based, C57BL/6 mice
Experimental: as §4, §3, §2

[9] = system: TLR7-mediated NF-κB signaling pathway (IKKα/β, IκBα, p65); assay: Western blot, NF-κB pathway in R837-stimulated RAW264.7 cells; type: cell-based, mouse; settings: RAW264.7 cells; R837 alone
Experimental: as §5, §6

[10] = RAW 264.7 cells, JSH-23 10 μM, 24 h

Molecule: C[C@@H]1C[C@H]2[C@@H]3CCC4=CC(=O)C=C[C@]4(C)[C@@]3(F)[C@@H](O)C[C@]2(C)[C@@]1(O)C(=O)CO [DEX, Dexamethasone, reference compound]
- arthritis clinical scores [1]: significantly lowered
- inflammatory status and inflamed synovium in joints [2]: significantly inhibited
- IL-1β level in sera [3]: significantly reduced
- IL-6 level in sera [3]: significantly reduced

Molecule: Cc1ccc(NCCCc2ccccc2)c(N)c1 [JSH-23]
- R837-induced IL-1β production [4, 10]: to a large extent, blocked
- R837-induced IL-6 secretion [4, 10]: only partially reduced

Molecule: CC(C)Cn1cnc2c(N)nc3ccccc3c21 [R837, imiquimod, reference compound]
- IL-1β and IL-6 release in the supernatant [5]: robustly induced
- IL-1β and IL-6 release in the supernatant ([4]; RAW264.7 cells, R837 alone (20 μg/ml)): robustly induced
- phosphorylation of IRAK4 and IKKβ [6]: rapidly triggered
- IRF5 translocation from cytoplasm to nucleus [7]: dramatically induced
- IL-1β and IL-6 release in the supernatant ([8]; BMDMs, R837 alone (20 μg/ml)): robustly induced
- phosphorylation of IKKα/β and IκB-α [9]: rapidly occurs

Molecule: poly (I:C) [reference compound]
- IL-1β and IL-6 production ([4]; R837-stimulated RAW264.7 cells, addition of poly (I:C)): did enhance
- IL-1β and IL-6 secretion ([4]; RAW264.7 cells, poly (I:C) alone (1 μg/ml)): significantly increased
- IL-1β and IL-6 production ([8]; BMDMs, poly (I:C) alone (1 μg/ml)): did not affect
- IL-1β and IL-6 production ([8]; R837-stimulated BMDMs, addition of poly (I:C)): did enhance
